Assay in all cases: NCI anticancer screen, dose series, 48 h
Assay [1] deals with MDA-MB-231 breast.
Assay [2] deals with A549 NSCLC.
The test system of assay [3] is RXF 393 renal.
Assay [4] relates to SW-620 colon.
The subject of assay [5] is BT-549 breast.
Assay [6] relates to CAKI-1 renal.
Assay [7] concerns ACHN renal.
Assay [8] has as its system MCF7 breast.
Assay [9] relates to NCI/ADR-RES ovarian.
The subject of assay [10] is HCC-2998 colon.
The subject of assay [11] is M14 melanoma.

Several values for one entry are separate records, joined by “and”; a condition that tells them apart may be missing. Equal entries are not always repeated.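 48-hour exposure; five concentrations; linearly interpolated endpoints. GI50 marks 50% less growth. TGI denotes the concentration required for complete inhibition of growth.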

Consider `CCOc1ccc(N/C(=C(/C(Cl)=C(/Cl)NC(C)(C)C)[N+](=O)[O-])n2nnc3ccccc32)cc1`, for which the TGI is 37.6 µM in assay [1]; more than 100 µM in assay [2]; 41.8 µM in [3]; 41.9 µM in assay [4]; 41.5 µM in [5]; 35.3 µM in assay [6]. The TGI in assay [7] was more than 100 µM; in [8], 65.1 µM; in assay [9] it was more than 100 µM; in assay [10], more than 100 µM; in assay [11], more than 100 µM.

Consider `COc1ccc(-c2c(C#N)c(S)n(NS(=O)(=O)c3ccccc3)c(=O)c2C#N)cc1`, for which the TGI was more than 100 µM in assay [1]; more than 100 µM in [2]; more than 100 µM in assay [3]; more than 100 µM in [4]; 46 µM in assay [5]; more than 100 µM in assay [6]. Moreover, the TGI in assay [7], in [8], in assay [9], in assay [10] and in [11] was more than 100 µM throughout.

With `CCN1CN(c2ccccc2)C2(CCN(CC(CC3OCCO3)c3ccc(F)cc3)CC2)C1=O` (stereo unspecified), the TGI in [1] is more than 44.2 µM; in [2], more than 100 µM; in assay [3], 44.8 µM; in assay [4], more than 40.4 µM; in [5], 53.2 µM; in assay [6] it was 22.5 µM. The TGI is more than 30.5 µM in assay [7]; 7.22 µM in [8]; more than 92.7 µM in [9]; 46.1 µM in [10]; 9.54 µM in [11].

As to `OC1CSc2nc3ccccc3n2C1` (stereo unspecified), the TGI in [1], in assay [2], in assay [3], in assay [4], in [5] and in assay [6] was more than 100 µM in each case. The TGI in assay [7], in assay [8], in assay [9], in [10] and in assay [11] was more than 100 µM each time.

Regarding `N#Cc1c(O)c(/C=N/c2ncccn2)c(=O)n2c1[nH]c1ccccc12`, the TGI in assay [1], in [2], in [3], in assay [4], in assay [5] and in assay [6] was more than 100 µM in each case. Further, the TGI in assay [8], in assay [9], in assay [10] and in [11] was more than 100 µM each time.

As to `CC(=O)Oc1ccc2c3c1O[C@H]1[C@H](O)CC[C@@]4(O)[C@@H](C2)N(C)CC[C@]314`, the TGI in assay [1], in [2], in assay [4], in assay [5], in [6] and in assay [7] was more than 100 µM in each case. Moreover, the TGI in assay [8], in assay [9] and in assay [11] was more than 100 µM each time.

As for `Cc1ccc(N(C)S(=O)(=O)c2ccccc2[N+](=O)[O-])cc1`, the TGI in assay [1] is more than 100 µM; in [2], more than 100 µM; in assay [3], more than 100 µM; in assay [4], more than 100 µM; in [5], 61.7 µM; in [6] it was more than 100 µM. Further, the TGI in assay [7] is more than 100 µM; in assay [8], more than 100 µM; in assay [9] it was more than 100 µM; in assay [11], 44.5 µM.

For `CCO/C=N/C1=C(C#N)SC2=N/C(=C\c3ccccc3)C(=O)N21`, the TGI in assay [1], in assay [2], in [3], in assay [4], in [5] and in assay [6] was more than 100 µM each time. For the same compound, the TGI in [7], in assay [8], in [9], in [10] and in assay [11] was more than 100 µM throughout.

Take `COC(=O)C12OC3CO[Si](C(C)C)(C(C)C)O[Si](C(C)C)(C(C)C)OC3C1Oc1nc(=O)ccn12` (stereo unspecified): the TGI was determined as 29.5 µM in assay [1]; 28.6 µM in [2]; 30.6 µM in [3]; 30 µM in assay [4]; 32.1 µM in assay [5]; 31.7 µM in assay [6]. Moreover, the TGI worked out at 32.2 µM in [7], 29.4 µM in assay [8], 29.2 µM in [9] and 32.3 µM in [11].

For `CCOP(=O)(OCC)OC1c2[nH]cc(C(=O)OCc3ccccc3)c2-c2cc(C(=O)OC)[nH]c2C1OC` (stereo unspecified), the TGI in assay [1] was 37 µM; in assay [2] it was more than 61.2 µM; in assay [3], more than 56.3 µM; in assay [4], more than 100 µM; in [5], 45.9 µM; in assay [6], more than 100 µM. The TGI in assay [7] is 30.5 µM; in [8] it was more than 100 µM; in [9], 59.5 µM; in assay [10], more than 78.9 µM; in [11] it was more than 100 µM.

`CN(C)Cc1cc(N=Nc2ccc(Cl)cc2)cc(CN(C)C)c1O`: the TGI in [1] was found to be 20.9 µM; in assay [2], 21.3 µM; in [3], 25.1 µM; in assay [4], 21.1 µM; in assay [5], 23.8 µM; in assay [6] it was 26.8 µM. The TGI in assay [7] amounted to 19 µM; in assay [8] it was 21.3 µM; in [9] it was 13.6 µM; in assay [10], 23.6 µM; in assay [11], 37.6 µM.

As to `COc1ccc2nc3cccc([N+](=O)[O-])c3c(NCCCO)c2c1`, the GI50 was 2260 nM in assay [1]; 6.16 nM and 22.9 nM in assay [9]; 1.86 nM in assay [10]. The TGI is 0.0223 µM and 0.102 µM in [2]; 0.00255 µM in assay [3]; 0.0323 µM in assay [4]; 0.0146 µM and 0.0929 µM in [5]; 0.0248 µM in [6]; 0.0134 µM and 0.0389 µM in assay [8]. Also, the TGI in assay [9] is 0.0276 µM and 0.248 µM; in assay [11], 0.00227 µM.

`O=C1CC(NCc2ccccc2)c2c(Cl)sc(Cl)c21` (stereo unspecified): the TGI in assay [1] is 66.4 µM; in assay [2], more than 100 µM; in assay [4] it was more than 87.4 µM; in assay [5], 69.8 µM; in assay [6] it was 53 µM; in assay [7], 52.8 µM. Moreover, the TGI in [8] was 50.3 µM; in assay [9] it was more than 86.3 µM; in assay [10] it was 35.7 µM; in assay [11], more than 63.6 µM.

On to `CC[C@@]1(O)C(=O)OCc2c1cc1n(c2=O)Cc2c-1nc1ccccc1c2/C=N/NC(=O)c1ccc(N)cc1`, for which the TGI in assay [1] was more than 100 µM; in assay [2] it was more than 100 µM; in assay [3], 0.22 µM; in assay [4], more than 100 µM; in assay [5], more than 100 µM; in assay [6] it was 5.06 µM. In addition, the TGI is more than 100 µM in assay [8], more than 37.8 µM in assay [9], more than 69.9 µM in [10] and 1.23 µM in assay [11].

Regarding `Cc1ccc(N/C(SCc2ccccc2)=C(\C(Cl)=C(Cl)Cl)[N+](=O)[O-])c(C)c1`, the TGI in [1] was 34.8 µM; in [2], 90.6 µM; in assay [4] it was 33.3 µM; in [5] it was 36.5 µM; in assay [6], 50.8 µM; in assay [7] it was more than 100 µM. Also, the TGI in assay [8] was more than 100 µM; in assay [9], 56.5 µM; in [10], more than 100 µM; in assay [11] it was 34 µM.

Regarding `CC(=O)OC(Cc1c(O)c2c(C)cccc2oc1=O)C(C)(C)O` (stereo unspecified), the TGI in [1], in assay [2], in assay [4], in assay [5], in assay [6] and in assay [7] was more than 100 µM each time. Also, the TGI in [8], in assay [9], in assay [10] and in assay [11] was more than 100 µM in each case.

As to `CNc1nc(C(N)=O)c(N)s1`, the TGI in assay [1], in [2], in assay [3], in assay [4], in assay [5] and in [6] was more than 100 µM each time. For the same compound, the TGI in [7], in assay [9] and in assay [11] was more than 100 µM throughout.

Regarding `CCOC(=O)NN(C(=O)OCC)c1c(C)cc(C)cc1C`, the TGI in assay [1], in assay [2], in assay [3], in [4], in assay [5] and in assay [6] was more than 100 µM in each case. The TGI in [8], in [9], in assay [10] and in assay [11] was more than 100 µM each time.

`O=C(N/N=C/c1ccccc1)c1cccc2nc3ccccc3nc12`: the TGI was more than 100 µM in assay [1]; more than 84 µM in assay [2]; more than 100 µM in assay [3]; more than 100 µM in assay [4]; more than 100 µM in [5]; more than 100 µM in assay [6]. The TGI in [7], in assay [8], in assay [9] and in assay [11] was more than 100 µM in each case.

Consider `O=C(NNC(=O)c1csc(NC(=S)NC2CCCCC2)n1)c1ccccc1`, for which the TGI in assay [1] was 30.8 µM; in assay [2], 54.1 µM; in [4] it was 29.5 µM; in [5] it was 46.5 µM; in assay [6] it was 39.5 µM; in [7], 43.9 µM. Besides, the TGI in assay [8] was more than 100 µM; in [9], 50.8 µM; in [10], 32.2 µM; in assay [11] it was 35.4 µM.

`CCOC(=O)c1nc2ccc(C(F)(F)F)cc2nc1Oc1ccc(C(=O)OC)cc1`: the TGI in assay [1], in assay [3], in assay [4], in assay [5], in assay [6] and in assay [7] was more than 100 µM in each case. The TGI in assay [8], in [9], in [10] and in assay [11] was more than 100 µM in each case.

In the case of `Cc1cccc(N/C(Sc2ccccc2)=C(/C(Cl)=C(Cl)Cl)[N+](=O)[O-])c1`, the TGI in assay [1] amounted to 53.9 µM; in assay [2], 47.4 µM; in assay [4], 31.1 µM; in assay [5], 41.8 µM; in assay [6] it was 37.3 µM; in assay [7], 74.9 µM. The TGI was 91.3 µM in [8], 39.1 µM in assay [9], more than 100 µM in [10] and 36.7 µM in assay [11].

With `COc1cccc(/C=C2\S/C(=N/Nc3nc(-c4ccc([N+](=O)[O-])cc4)cs3)NC2=O)c1O`, the TGI in [1] is 41.7 µM; in [2], 39.6 µM; in assay [4], 46.1 µM; in assay [5], 20 µM; in [6], 71.1 µM; in [7], 32.3 µM. Further, the TGI stood at 38.2 µM in [8], 53.3 µM in [9], 33.7 µM in [10] and 33.2 µM in assay [11].

Take `CN1CC2CN(Cc3ccccc3)CCN2c2cccnc21` (stereo unspecified): the TGI in assay [1], in [2], in assay [3], in assay [4], in assay [5] and in assay [6] was more than 100 µM in each case. Besides, the TGI in assay [7], in assay [8], in assay [9] and in assay [11] was more than 100 µM each time.

Turning to `CCOC1CC(C)N(C(=O)c2ccccc2)O1` (stereo unspecified), the TGI in [1], in [2], in assay [3], in assay [4], in [5] and in assay [7] was more than 100 µM in each case. For the same compound, the TGI in [8], in assay [9], in assay [10] and in assay [11] was more than 100 µM throughout.

Take `Cc1[nH]c(=O)nc(NNCc2ccc(Cl)cc2)c1C(=O)Nc1ccc(Cl)cc1`: the TGI in assay [1], in assay [2], in [3], in assay [4], in assay [5] and in assay [6] was more than 100 µM each time. In addition, the TGI in assay [8], in [9], in assay [10] and in [11] was more than 100 µM each time.

These data come from PubChem BioAssay (NCI).
